What was measured:
4.5X(−) Pseudomonas = assay: Antibiotic resistance: colony growth on LB/agar plates with antibiotics; assay type: cell-based, Pseudomonas mendocina; settings: strain with disrupted 4.5X gene; agar plates, concentration ranging from 5 1μg/mL to 25 μg/mL
Procedure: (§1) The transformed Pseudomonas mendocina KR-1, carrying the disrupted putative efflux 4.5X gene, was grown on the agar plates in the presence of different antibiotics or high concentration of PHBA. The growth of the strain with the disrupted 4.5X gene was compared with that of wild type Pseudomonas mendocina strain KR-1.
The colonies were innoculated on the LB plates with different antibiotics separately. The antibiotics include Amp (50 μg/mL), Strep (10 μg/mL), Tec (10 μg/mL), Kam (25 μg/mL) and CM (5 μg/mL, 15 μg/mL and 25 μg/mL). The plates were kept at 30° C. for 48 hour. The growth of the colonies was scored based on the growth of wildtype strain KR-1 and the growth of these colonies on LB plates.

4.5X(−) = assay: Sensitivity to PHBA: cell growth in liquid minimal medium by optical density; assay type: cell-based, Pseudomonas mendocina; settings: in the presence of 50 mM PHBA, same condition for both strains
Procedure: as §1
The cells were innoculated in the liquid medium consisting of minimal medium (in 1 L solution, sodium phosphate, monobasic, 1.85 g; potassium phosphate, dibasic, 5.84 g; ammonia sulphate, 1.5 g; yeast extract, 500 mg; 1x minerals, 2% glucose and 50 mM PHBA). The cultures were kept at 30° C. in a shaker incubator for 48 hours. The cell growth was monitored by optical density (O.D) measurements using a spectrophotometer.

Compound	Growth on plates with chloramphenicol (4.5X(−) Pseudomonas)	Growth of 4.5X(−) strain relative to wildtype strain (4.5X(−))
O=C(N[C@H](CO)[C@H](O)c1ccc([N+](=O)[O-])cc1)C(Cl)Cl [CM, choromphenecol]	unable to grow	
O=C(O)c1ccc(O)cc1 [PHBA, p-hydroxybenzoic acid]		four times slower
